Data from patent US7807704B2, “Bicyclic, nitrogen-containing compounds modulating CXCR4 and/or CCXCKR2” (Chemocentryx, Inc., priority 2006, dated 2010).
pIC50: −log10 of the molar value.

How the values were obtained:
CXCR4 = target: T1, CXCR4 (Homo sapiens, UniProt P61073); experiment: chemotaxis assay or 125I SDF-1α binding assay for CXCR4; details: first or only activity listed, read-out: CXCR4 activity (IC50 class)
T1 construct: all endogenously expressing CXCR4; endogenous in cells; host or cells: CEM-Nkr, CCRF-CEM, Jurkat, Molt-4; IL-2 stimulated human lymphocytes
Experimental: CEM-Nkr, CCRF-CEM (ATCC #CCL-119), Jurkat (ATCC #TIB-152), Molt-4 (ATCC# CRL-1582), cell lines, all endogenously expressing CXCR4, were used in compound screening and subsequent assays. These cell lines were cultured as a suspension in RPMI-1640 medium supplemented with 2 mM L-glutamine, 1.5 g/L sodium bicarbonate, 4.5 g/L glucose, 10 mM HEPES, 1 mM sodium pyruvate, and 10% FBS. Cells were grown under 5% CO2/95% air, 100% humidity at 37° C. and subcultured twice weekly at 1:6 (cells were cultured at a density range of 1×10^5 to 2×10^6 cells/mL) and harvested at 1×10^6 cells/mL. • b) Isolated Human IL-2 Stimulated Lymphocytes
Cells were centrifuged and resuspended in assay buffer (20 mM HEPES pH 7.1, 140 mM NaCl, 1 mM CaCl2, 5 mM MgCl2, and with 0.2% bovine serum albumin) to a concentration of 4×10^6 cells/mL for cell lines. Binding assays were set up as follows. […] Then 0.1 mL of ^125I labeled SDF-1α (obtained from Perkin Elmer Life Sciences, Boston, Mass.) diluted in assay buffer to a final concentration of ˜50 pM, yielding ˜30,000 cpm per well, was added, the plates sealed and incubated for approximately 3 hours at 4° C. on a shaker platform. Reactions were aspirated onto GF/B glass filters pre-soaked in 0.3% polyethyleneimine (PEI) solution, on a vacuum cell harvester (Packard Instruments; Meriden, Conn.). Scintillation fluid (40 μl; Microscint 20, Packard Instruments) was added to each well, the plates were sealed and radioactivity measured in a Topcount scintillation counter (Packard Instruments). Control wells containing either diluent only (for total counts) or excess SDF1 a (1 μg/mL, for non-specific binding) were used to calculate the percent of total inhibition for compound. The computer program Prism from GraphPad, Inc. (San Diego, Calif.) was used to calculate IC50 values. IC50 values are those concentrations required to reduce the binding of radiolabeled SDF-1α to the receptor by 50%. (For further descriptions of ligand binding and other functional assays, see Dairaghi, et al., J. Biol. Chem. 274:21569-21574 (1999), Penfold, et al., Proc. Natl. Acad. Sci. USA. 96:9839-9844 (1999), and Dairaghi, et al., J. Biol. Chem. 272:28206-28209 (1997)).
Chemotaxis assays were performed using 5 μm pore polycarbonate, polyvinylpyrrolidone-coated filters in 96-well chemotaxis chambers (Neuroprobe; Gaithersburg, Md.) using chemotaxis buffer (Hank's balanced salt solution (HBSS) and 1% FBS). CXCR4 ligand (i.e., SDF1a, R&D Systems; Minneapolis, Minn.) are use to evaluate compound mediated inhibition of CXCR4 mediated migration. Other chemokines (i.e., TECK; R&D Systems; Minneapolis, Minn.) are used as specificity controls. The lower chamber was loaded with 29 μl of chemokine (i.e., 0.1 nM SDF1a); the top chamber contained 50,000 Jurkat cells or IL-2 lymphocytes in 20 μl. The chambers were incubated 2 hours at 37° C., and the number of cells in the lower chamber quantified either by direct cell counts in five high powered fields per well or by the CyQuant assay (Molecular Probes), a fluorescent dye method that measures nucleic acid content and microscopic observation.
To evaluate small organic molecules that prevent the CXCR4 from binding ligand, an assay was employed that detected radioactive ligand (i.e, SDF-1) binding to cells expressing CXCR4 on the cell surface (for example, CEM-Nkr cells). For compounds that inhibited binding, whether competitive or not, fewer radioactive counts are observed when compared to uninhibited controls.
Equal numbers of cells were added to each well in the plate. The cells were then incubated with radiolabeled […]. Unbound ligand was removed by washing the cells, and bound ligand was determined by quantifying radioactive counts. Cells that were incubated without any organic compound gave total counts; non-specific binding was determined by incubating the cells with unlabeled ligand and labeled ligand. Percent inhibition was determined by the equation: […]

CCXCKR2 (CXCR7) = target: T2, CCXCKR2 (CXCR7) (Homo sapiens, UniProt P25106); experiment: displacement of 125I SDF-1 from CCXCKR2 (CXCR7) on MCF-7 and/or MDA-MB-435S cells; format: binding; details: second activity listed in the cell; read-out: CXCR7 activity (IC50 class)
T2 construct: expressed in transfected cells; host or cells: MDA-MB-435S transfected with pcDNA3.1(+)-hRDC1, and/or MCF-7 (endogenous receptor)
Experimental: The ability of the compounds to displace the labeled chemokine from the CCXCKR2 receptor sites at multiple concentrations was then determined with the screening process.
Reagents and Cells. ^125I-labeled SDF-1 was purchased from Perkin-Elmer Life Sciences, Inc. (Boston, Mass.). The MCF-7 (adenocarcinoma; mammary gland) cell line was obtained from the American Type Culture Collection (Manassas, Va.) or and was cultured in DMEM (Mediatech, Herndon, Va.) supplemented with 10% fetal bovine serum (FBS) (HyClone Logan, Utah) and bovine insulin (0.01 mg/mL) (Sigma, St. Louis, Mo.) at 37° C. in a humidified incubator at a 5% CO2/air mixture. CCXCKR2 transfected MDA-MB-435S were produced as described below. MDA-MB-435S human breast cancer line, was purchased from ATCC, and cultured in DMEM/10% FBS medium. The complete coding sequence of the gene encoding CCXCKR2 (a.k.a. CXCR7, hRDC1), was isolated from MCF-7 cells using μMACs mRNA isolation kit (Miltenyi Biotec, Auburn, Calif.). DNA contamination was removed by DNase digestion via RNeasy columns (Qiagen, Inc., Valencia, Calif.) and cDNA was generated using GeneAmp RNA PCR Core Kit (Applied Biosystems, Foster City, Calif.). PCR of cDNA samples was performed using Taq PCR Master Mix kit (Qiagen, Inc.) and hRDC1 primers harboring 5′ and 3′ NotI sites (hRDC1F 5′ […]-3′ (SEQ ID NO:11, hRDC1R 5′-[…]-3′) Not I digested PCR product was ligated into Not I digested pcDNA3.1 (+)(Invitrogen, Carlsbad, Calif.) and screened for orientation and sequence confirmed. Plasmid DNA was then isolated from overnight bacterial cultures by Maxiprep (Qiagen, Inc.). Plasmid DNA (10 μg) was added to MDA-MB-435s cells and cells were electroporated (0.22 kV, 960 uF) via Gene Pulser (Biorad laboratories, Hercules, Calif.). 48 hr post-electroporation, cells were transferred to selection medium (1000 ug/ml G418).
Binding Analysis. Target compounds were tested to determine their ability to bind with CCXCKR2 sites on MCF-7 and/or MDA-MB-435S cells. Efficiency-maximized radioligand binding using filtration protocols as described in Dairaghi D J, et al., HHV8-encoded vMIP-I selectively engages chemokine receptor CCR5. Agonist and antagonist profiles of viral chemokines., J. Biol. Chem. 1999 Jul. 30; 274(31): 21569-74 and Gosling J, et al., Cutting edge: identification of a novel chemokine receptor that binds dendritic cell-and T cell-active chemokines including ELC, SLC, and TECK., J. Immunol. 2000 Mar. 15; 164(6):2851-6 was used.
In these assays, MCF-7 and/or MDA-MB-435S cells were interrogated with the target compounds and the ability of these compounds to displace ^125I radiolabeled SDF-1 was assessed using the protocol described in Dairaghi and Gosling. The target compounds were added to the plate to the indicated concentration and were then incubated with cells followed by the addition of radiolabeled chemokine (^125I SDF-1) for 3 hr at 4° C. in the following binding medium (25 mM HEPES, 140 mM NaCl, 1 mM CaCl2, 5 mM MgCl2 and 0.2% bovine serum albumin, adjusted to pH 7.1). All assays were then incubated for 3 hrs at 4° C. with gentle agitation. Following incubation in all binding assays, reactions were aspirated onto PEI-treated GF/B glass filters (Packard) using a cell harvester (Packard) and washed twice (25 mM HEPES, 500 mM NaCl, 1 mM CaCl2, 5 mM MgCl2, adjusted to pH 7.1). Scintillant (MicroScint 10, Packard) was added to the wells, and the filters were counted in a Packard Topcount scintillation counter. Data were analyzed and plotted using Prism (GraphPad Prism version 3.0a for Macintosh, GraphPad Software, www.graphpad.com).

T2 sequence (P25106 whole entry): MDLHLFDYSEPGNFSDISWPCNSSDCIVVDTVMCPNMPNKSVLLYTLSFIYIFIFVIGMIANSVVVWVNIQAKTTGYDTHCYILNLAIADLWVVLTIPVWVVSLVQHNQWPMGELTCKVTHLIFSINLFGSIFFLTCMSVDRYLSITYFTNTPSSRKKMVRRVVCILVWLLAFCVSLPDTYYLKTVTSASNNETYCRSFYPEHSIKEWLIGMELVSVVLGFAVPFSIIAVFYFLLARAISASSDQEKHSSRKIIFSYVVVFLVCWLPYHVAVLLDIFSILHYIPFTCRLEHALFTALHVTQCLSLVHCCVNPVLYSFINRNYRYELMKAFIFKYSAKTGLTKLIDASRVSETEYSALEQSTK
T1 sequence (P61073 whole entry): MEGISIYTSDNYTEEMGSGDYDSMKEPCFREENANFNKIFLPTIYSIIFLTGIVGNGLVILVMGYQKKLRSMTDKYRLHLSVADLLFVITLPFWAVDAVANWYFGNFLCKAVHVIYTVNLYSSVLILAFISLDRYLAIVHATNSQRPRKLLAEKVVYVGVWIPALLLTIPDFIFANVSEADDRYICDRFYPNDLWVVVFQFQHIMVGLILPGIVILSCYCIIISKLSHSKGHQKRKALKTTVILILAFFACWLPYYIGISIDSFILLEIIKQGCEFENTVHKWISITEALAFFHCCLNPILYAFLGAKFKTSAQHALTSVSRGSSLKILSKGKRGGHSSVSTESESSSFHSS

| Structure (SMILES) | pIC50 (CXCR4) | pIC50 (CCXCKR2 (CXCR7)) |
| --- | --- | --- |
| CN(CCNC(=O)Cn1ccc2ccc(-c3ccc(F)cc3)cc21)C1CCCCC1 [No 23] | > 6.00 | > 6.00 |
| Cc1ccc(-c2ccc3ccn(CC(=O)NCCN(C)C4CCCCC4)c3c2)cc1 [No 24] | > 6.00 | 5.00 to 6.00 |
| CN(CCNC(=O)Cn1ccc2ccc(-c3ccc(Cl)c(Cl)c3)cc21)C1CCCCC1 [No 27] | > 6.00 | > 6.00 |
| CCCCc1ccc(-c2ccc3ccn(CC(=O)NCCN(C)C4CCCCC4)c3c2)cc1 [No 31] | > 6.00 | 5.00 to 6.00 |
| Cc1cc(C)cc(-c2ccc3ccn(CC(=O)NCCN(C)C4CCCCC4)c3c2)c1 [No 32] | > 6.00 | 5.00 to 6.00 |
| Cc1cc(-c2ccc3ccn(CC(=O)NCCN(C)C4CCCCC4)c3c2)ccc1F [No 33] | > 6.00 | > 6.00 |
| CN(CCNC(=O)Cn1ccc2ccc(-c3ccc4c(ccn4C)c3)cc21)C1CCCCC1 [No 35] | > 6.00 | 5.00 to 6.00 |
| Cc1ccc(-c2ccc3ccn(CC(=O)NCCN4CCCC4)c3c2)cc1 [No 52] | > 6.00 |  |
| Cc1ccc(-c2ccc3ccn(CC(=O)NCCN4CCCCC4C)c3c2)cc1 (stereo not drawn) [No 53] | > 6.00 |  |
| Cc1ccc(-c2ccc3ccn(CC(=O)NCCN4CCC(C)CC4)c3c2)cc1 [No 56] | > 6.00 |  |
| CN(CCNC(=O)Cn1ccc2ccc(-c3ccc(C#N)cc3)cc21)C1CCCCC1 [No 57] | > 6.00 |  |
| COC(=O)c1cc2ccc(-c3ccc(C)cc3)cc2n1CC(=O)NCCN(C)C1CCCCC1 [No 58] | > 6.00 |  |
| Cc1ccc(-c2ccc3ccn(CC(=O)NC(C)CN4CCCC4)c3c2)cc1 (stereo not drawn) [No 59] | > 6.00 |  |
| Cc1ccc(-c2ccc3ncn(CC(=O)NCCN(C)C4CCCCC4)c3c2)cc1 [No 60] | > 6.00 |  |
| Cc1ccc(-c2ccc3ccn(CC(=O)NCC(C)N4CCCC4)c3c2)cc1 (stereo not drawn) [No 61] | > 6.00 |  |
| Cc1ccc(-c2ccc3ccn(CC(=O)NCCN4CCCC(C)(C)C4)c3c2)cc1 [No 63] | > 6.00 |  |
| Cc1ccc(-c2ccc3ccn(CC(=O)NCCN4CC(C)CC(C)C4)c3c2)cc1 (stereo not drawn) [No 64] | > 6.00 |  |

Now from value to molecule:

| pIC50 (CXCR4) | pIC50 (CCXCKR2 (CXCR7)) | Structure (SMILES) |
| --- | --- | --- |
| > 6.00 | 5.00 to 6.00 | COc1ccc(-c2ccc3ccn(CC(=O)NCCN(C)C4CCCCC4)c3c2)cc1 [No 26] |
| 5.00 to 6.00 | 5.00 to 6.00 | CN(CCNC(=O)Cn1ccc2ccc(-c3cccc(C#N)c3)cc21)C1CCCCC1 [No 28] |
| > 6.00 |  | CN(CCNC(=O)Cn1ccc2ccc(-c3ccc(C(N)=O)cc3)cc21)C1CCCCC1 [No 50] |
| > 6.00 |  | Cc1ccc(-c2ccc3ccn(CC(=O)NCCN(C)C4CCCC4)c3c2)cc1 [No 51] |
| > 6.00 |  | Cc1ccc(-c2ccc3ccn(CC(=O)NCCN4CCCCCC4)c3c2)cc1 [No 54] |
| > 6.00 |  | CCN(CCNC(=O)Cn1ccc2ccc(-c3ccc(C)cc3)cc21)C1CCCCC1 [No 55] |
| > 6.00 |  | CN(C)c1ccc(-c2ccc3ccn(CC(=O)NCCN(C)C4CCCCC4)c3c2)cc1 [No 62] |
